Measured values: EP1247803A2, “Indolinone compounds suitable for modulation of protein kinases” (Sugen, Inc., priority 1996, dated 1998)

Legend:
FLK-1 receptor = target: T1, FLK-1 receptor (Mus musculus, UniProt P35918); test: FLK-1 ELISA (kinase activity of the FLK-1 receptor in FLK-1/NIH3T3 cells, VEGF stimulated); format: cell-based; parameters: concentration or dose not given beside the values
T1 construct: expressed in transfected cells; host or cells: NIH3T3 C7#3
Method: An enzyme linked immunosorbent assay (ELISA) was conducted to measure the catalytic activity of the FLK-1 receptor and more specifically, the inhibition or activation of indolinone compounds on the catalytic activity of the FLK-1 receptor. Specifically, the following assay was conducted to measure catalytic activity of the FLK-1 receptor in FLK-1/NIH3T3 cells.
The materials and protocol for the FLK-1 ELISA assay are as described in International Patent Publication No. WO 96/40116, published December 19, 1996 by Tang et al.
Selected compounds were tested in the FLK-1 ELISA assay.
An ELISA assay was conducted to measure the kinase activity of the FLK-1 receptor and more specifically, the inhibition or activation of protein tyrosine kinase activity on the FLK-1 receptor. Specifically, the following assay was conducted to measure kinase activity of the FLK-1 receptor in FLK-1/NIH3T3 cells.
Materials. The following reagents and supplies were used: • a. […] Cappel goat anti-rabbit IgG (catalog no. 55641); • c. PBS (Gibco Catalog No. 450-1300EB); • d. TBSW Buffer (50 mM Tris (pH 7.2), 150 mM NaCl and 0.1% Tween-20); • e. Ethanolamine stock (10% ethanolamine (pH 7.0), stored at 4°C); • f. HNTG buffer (20mM HEPES buffer (pH 7.5), 150mM NaCl, 0.2% Triton X-100, and 10% glycerol); • g. EDTA (0.5 M (pH 7.0) as a 100X stock); • h. Sodium ortho vanadate (0.5 M as a 100X stock); • i. Sodium pyro phosphate (0.2M as a 100X stock); • j. NUNC 96 well V bottom polypropylene plates (Applied Scientific Catalog No. AS-72092); • k. NIH3T3 C7#3 Cells (FLK-1 expressing cells); • l. DMEM with 1X high glucose L Glutamine (catalog No. 11965-050); • m. FBS, Gibco (catalog no. 16000-028); • n. L-glutamine, Gibco (catalog no. 25030-016); • o. VEGF, PeproTech, Inc. (catalog no. 100-20)(kept as 1 µg/100 µl stock in Milli-Q dH2O and stored at -20°C; • p. Affinity purified anti-FLK-1 antiserum which can be obtained or purified as follows: • 1. Prepare a Tresyl-Activated Agarose/Flk-1-D column by incubating 10 ml of Tresyl-Activated Agarose with 20 mg of purified GST-Flk-1-D fusion protein in 100mM sodium bicarbonate (pH 9.6) buffer overnight at 4 °C. • 2. Wash the column once with PBS. • 3. Block the excess sites on the column with 2 M glycine for 2 hours at 4°C. • 4. Wash the column with PBS. • 5. Incubate the column with Rabbit anti-Flk-1D production bleed for 2 hours at 4 °C. • 6. Wash the column with PBS. • 7. Elute antiserum with 100 mM Citric Acid, pH3.0 and neutralize the eluate immediately with 2 M Tris, pH 9.0. • 8. Dialyize the eluate against PBS overnight at 4 °C with 3 changes of buffer (sample to buffer ratio is 1:100). • 9. Adjust the dialyized antiserum to 5% glycerol and store at -80 °C in small aliquotes. • q.
Protocol. The following protocol was used for conducting the assay: • 1. Coat Corning 96-well elisa plates with 1.0µg per well Cappel Anti-rabbit IgG antibody in 0.1M Na2CO3 pH 9.6. Bring final volume to 150 µl per well. Coat plates overnight at 4°C. Plates can be kept up to two weeks when stored at 4°C. • 2. Grow cells in Growth media(DMEM, supplemental with 2.0mM L-Glutamine, 10% FBS) in suitable culture dishes until confluent at 37°C, 5% CO2. • 3. Harvest cells by trypsinization and seed in Corning 25850 polystyrene 96-well roundbottom cell plates, 25.000 cells/well in 200µl of growth media. • 4. Grow cells at least one day at 37°C, 5% CO2. • 5. Wash cells with D-PBS 1X. • 6. Add 200µl/well of starvation media (DMEM, 2.0mM 1-Glutamine, 0.1% FBS). Incubate overnight at 37°C, 5% CO2. • 7. Dilute Compounds/Extracts 1:20 in polypropylene 96 well plates using starvation media. Dilute dimethylsulfoxide 1:20 for use in control wells. • 8. Remove starvation media from 96 well cell culture plates and add 162 µl of fresh starvation media to each well. • 9. Add 18µl of 1:20 diluted Compound/Extract dilution (from step 7) to each well plus the 1:20 dimethylsulfoxide dilution to the control wells (+/- VEGF), for a final dilution of 1:200 after cell stimulation. […]

MET = MET biochemical kinase assay; parameters: species or system human; concentration or dose not given beside the values
Excerpt: A met biochemical kinase assay may be performed for met generally as described above for other kinases by substituting that or the other kinases. In particular, ELISA plates are coated with goat anti-rabbit Fc antibodies, which are used to capture commercially available (from Santa Cruz Biotechnology) rabbit polyclonal antibodies to the cytoplasmic domain of human MET. […] The chimeric receptors, or MET, from these lysates are captured on the antibody coated plates. After washing away extraneous proteins, test compounds are added and an in vitro kinase assay is performed by addition of an appropriate kinase buffer (containing ATP, divalent metal ions, etc.). Incorporation of phosphate into the captured receptors is detected with an anti-phosphotyrosine antibody conjugate with horse radish peroxidase using TMB as a substrate for colorimetric detection.

T1 sequence (P35918 20-1345): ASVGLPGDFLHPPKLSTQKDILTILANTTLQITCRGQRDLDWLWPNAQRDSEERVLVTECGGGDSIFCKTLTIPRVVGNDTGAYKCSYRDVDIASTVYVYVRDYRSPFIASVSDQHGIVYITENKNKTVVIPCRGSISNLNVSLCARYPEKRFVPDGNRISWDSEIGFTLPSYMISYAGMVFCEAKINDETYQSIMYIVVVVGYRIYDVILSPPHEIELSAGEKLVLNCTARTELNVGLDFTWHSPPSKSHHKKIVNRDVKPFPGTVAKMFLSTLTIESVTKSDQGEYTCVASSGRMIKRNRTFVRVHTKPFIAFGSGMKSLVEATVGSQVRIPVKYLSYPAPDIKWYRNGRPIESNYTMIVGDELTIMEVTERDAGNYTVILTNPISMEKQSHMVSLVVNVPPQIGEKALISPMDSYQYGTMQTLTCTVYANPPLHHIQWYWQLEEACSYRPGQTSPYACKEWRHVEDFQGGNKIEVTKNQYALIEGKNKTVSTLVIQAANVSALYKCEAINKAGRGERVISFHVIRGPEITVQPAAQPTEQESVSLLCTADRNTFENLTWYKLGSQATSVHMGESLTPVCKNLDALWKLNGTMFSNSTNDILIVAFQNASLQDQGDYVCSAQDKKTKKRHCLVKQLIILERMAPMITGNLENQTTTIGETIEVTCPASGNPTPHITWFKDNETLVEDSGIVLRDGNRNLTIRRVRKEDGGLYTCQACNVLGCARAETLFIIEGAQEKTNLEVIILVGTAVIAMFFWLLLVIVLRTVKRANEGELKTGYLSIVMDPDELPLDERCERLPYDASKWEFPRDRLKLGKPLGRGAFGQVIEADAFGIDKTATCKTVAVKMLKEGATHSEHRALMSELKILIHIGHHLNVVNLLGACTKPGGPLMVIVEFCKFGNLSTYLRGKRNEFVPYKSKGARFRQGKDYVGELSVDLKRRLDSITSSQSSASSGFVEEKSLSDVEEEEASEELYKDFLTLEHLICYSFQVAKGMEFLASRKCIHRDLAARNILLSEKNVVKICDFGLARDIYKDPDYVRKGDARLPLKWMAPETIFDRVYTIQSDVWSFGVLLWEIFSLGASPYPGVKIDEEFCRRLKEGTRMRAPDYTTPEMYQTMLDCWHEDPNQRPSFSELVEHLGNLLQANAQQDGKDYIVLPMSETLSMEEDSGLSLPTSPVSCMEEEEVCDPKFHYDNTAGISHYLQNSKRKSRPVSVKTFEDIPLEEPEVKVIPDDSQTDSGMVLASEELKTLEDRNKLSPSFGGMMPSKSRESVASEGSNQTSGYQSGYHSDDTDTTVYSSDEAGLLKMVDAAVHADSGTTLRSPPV

Row | Structure (SMILES) | Fik Kinase %Inhibition (FLK-1 receptor) | Met Kinase % Inhibition (MET)
1 | Cc1c(Br)ccc2c1C(=Cc1cc(C(C)C)c(Oc3ccccc3)c(C(C)C)c1)C(=O)N2 [10732/C04] | 12.8% | 30.6%
2 | COc1c(Cl)cc(C=C2C(=O)Nc3ccc(I)cc32)cc1C(C)(C)C [10732/B09] | 14.0% | 69.2%
3 | CNS(=O)(=O)c1ccc2c(c1)C(=Cc1cc(OC)cc(Br)c1O)C(=O)N2 [10718/D03] | 1.1% | 92.9%
4 | O=C1Nc2ccc(CCCl)cc2C1=Cc1c[nH]c(=O)[nH]c1=O [10731/G08] | 18.2% | 19.5%
5 | Cc1c(Br)ccc2c1C(=Cc1ccc([N+](=O)[O-])o1)C(=O)N2 [10718/C11] | 11.4% | 10.1%
6 | COc1ccc(C=C2C(=O)Nc3c(Br)cc(Br)cc32)cc1C(C)(C)C [10732/A05] | -3.9% | 20.5%
7 | CNS(=O)(=O)c1ccc2c(c1)C(=CC(c1cccs1)C(F)(F)F)C(=O)N2 (stereo not shown) [10732/D02] | 9.2% | 50.2%
8 | CNS(=O)(=O)c1ccc2c(c1)C(=Cc1coc3ccc([N+](=O)[O-])cc3c1=O)C(=O)N2 [10731/D07] | 12.3% | 45.9%
9 | COc1ccc(C=C2C(=O)Nc3ccc(Br)c(C)c32)cc1C(C)(C)C [10732/C05] | 11.2% | 18.5%
10 | CNS(=O)(=O)c1ccc2c(c1)C(=Cc1ccc3ccccc3c1O)C(=O)N2 [10718/D04] | 6.4% | 92.9%
11 | Cc1c(Br)ccc2c1C(=Cc1cc(Cl)c(OCc3ccccc3)c(C(C)(C)C)c1)C(=O)N2 [10732/C10] | 15.1% | 43.0%
12 | COc1c(Br)cc(C=C2C(=O)Nc3ccc(Br)c(C)c32)cc1C(C)(C)C [10732/C07] | 15.4% | 26.5%
13 | CNS(=O)(=O)c1ccc2c(c1)C(=Cc1cc(C(C)C)c(OC)c(C(C)C)c1)C(=O)N2 [10732/D03] | 22.5% | 24.9%
14 | CC(C)(C)c1cc(C=C2C(=O)Nc3ccc(I)cc32)cc(Cl)c1OCc1ccccc1 [10732/B10] | 12.1% | 51.5%
15 | CC(C)(C)c1cc(C=C2C(=O)Nc3c(Br)cc(Br)cc32)cc(Br)c1OCc1ccccc1 [10732/A08] | -10.0% | 32.7%
16 | CCn1c2ccccc2c2cc(C=C3C(=O)Nc4ccc(CCCl)cc43)ccc21 [10731/G02] | 16.8% | 15.2%

Row | Structure (SMILES) | Fik Kinase %Inhibition (FLK-1 receptor) | Met Kinase % Inhibition (MET)
17 | Cc1ccc2occ(C=C3C(=O)Nc4ccc(S(=O)(=O)Nc5ccc(C(F)(F)F)cc5)cc43)c(=O)c2c1 [10731/E06] | 2.6% | 37.7%
18 | COc1c(Br)cc(C=C2C(=O)Nc3ccc(I)cc32)cc1C(C)(C)C [10732/B07] | 1.6% | 75.1%
19 | CNS(=O)(=O)c1ccc2c(c1)C(=Cc1cc(Cl)c(OC)c(C(C)(C)C)c1)C(=O)N2 [10732/D09] | 15.2% | 40.3%
20 | COc1ccc2[nH]cc(C=C3C(=O)Nc4ccc(S(=O)(=O)Nc5ccc(C(F)(F)F)cc5)cc43)c2c1 [10731/E09] | 52.5% | 27.0%
21 | O=C1Nc2ccc(S(=O)(=O)Nc3ccc(C(F)(F)F)cc3)cc2C1=Cc1c[nH]c(=O)[nH]c1=O [10731/E08] | 10.5% | 59.0%
22 | O=C1Nc2ccc(S(=O)(=O)N3CCOCC3)cc2C1=Cc1c[nH]c(=O)[nH]c1=O [10731/F08] | 9.2% | 23.5%
23 | COc1ccc2[nH]cc(C=C3C(=O)Nc4ccc(CCCl)cc43)c2c1 [10731/G09] | 13.3% | 4.4%
24 | CNS(=O)(=O)c1ccc2c(c1)C(=Cc1cc(Br)c(OCc3ccccc3)c(C(C)(C)C)c1)C(=O)N2 [10732/D08] | 33.3% | 49.4%
25 | Cc1c(Br)ccc2c1C(=Cc1cc(Br)c(OCc3ccccc3)c(C(C)(C)C)c1)C(=O)N2 [10732/C08] | 7.6% | 54.5%
26 | COc1c(Cl)cc(C=C2C(=O)Nc3c(Br)cc(Br)cc32)cc1C(C)(C)C [10732/A09] | -11.2% | 60.3%
27 | O=C1Nc2ccc(S(=O)(=O)N3CCOCC3)cc2C1=Cc1coc2ccc([N+](=O)[O-])cc2c1=O [10731/F07] | 13.3% | 34.7%
28 | CNS(=O)(=O)c1ccc2c(c1)C(=Cc1cc(Cl)c(OCc3ccccc3)c(C(C)(C)C)c1)C(=O)N2 [10732/D10] | 25.5% | 33.1%
29 | COc1ccc2[nH]cc(C=C3C(=O)Nc4ccc(S(=O)(=O)N5CCOCC5)cc43)c2c1 [10731/F09] | 2.3% | 20.5%
30 | CC(C)c1ccc2occ(C=C3C(=O)Nc4ccc(CCCl)cc43)c(=O)c2c1 [10731/G05] | 17.5% | 72.4%
31 | C=C(C)C1CC=C(C=C2C(=O)Nc3ccc(CCCl)cc32)CC1 (stereo not shown) [10731/G04] | 14.5% | 23.3%
32 | Cc1c(Br)ccc2c1C(=CC(c1cccs1)C(F)(F)F)C(=O)N2 (stereo not shown) [10732/C02] | 11.9% | 40.1%
